Source: BindingDB's records for doi:10.1021/jm00105a069 (Schering-Plough, 1991)

Experiment: Concentration required to cause 50% inhibition of platelet activating factor (PAF)-induced platelet aggregation of human platelet rich plasma when challenged with 25 nM PAF.

| IC50 [µM] | Compound |
| --- | --- |
| > 50 | CN1CCC(=C2c3ccccc3CCc3cccnc32)CC1 |
| 1.5 | COc1cc([C@@H]2CC[C@@H](c3cc(OC)c(OC)c(OC)c3)O2)cc(OC)c1OC |
| > 50 | CC(C)(C)C(=O)N1CCC(=C2c3ccc(Cl)cc3CCc3cccnc32)CC1 |
| 0.81 | CC(=O)N1CCC(=C2c3ccc(Br)cc3CCc3cccnc32)CC1 |
| 3.4 | COc1ccc2c(c1)CCc1cccnc1C2=C1CCN(C(C)=O)CC1 |
| 1 | CC(=O)N1CCC(=C2c3cc(F)c(F)cc3CCc3cccnc32)CC1 |
| 0.82 | CC(=O)N1CCC(=C2c3cc(F)ccc3CCc3cccnc32)CC1 |
| 1.8 | CC(=O)N1CCC(=C2c3cc(Cl)c(Cl)cc3CCc3cccnc32)CC1 |
| 3.4 | CC(=O)N1CCC(=C2c3cc(Cl)ccc3CCc3cccnc32)CC1 |
| 2.4 | CCC(=O)N1CCC(=C2c3ccc(Cl)cc3CCc3cccnc32)CC1 |
| 0.67 | CC(=O)N1CCC(=C2c3ccc(F)cc3CCc3cccnc32)CC1 |
| > 50 | CC(=O)N(C)CC/C=C1\c2ccc(Cl)cc2CCc2cccnc21 |
| 13 | O=CN1CCC(=C2c3ccc(Cl)cc3CCc3cccnc32)CC1 |
| 33 | CCCC(=O)N1CCC(=C2c3ccc(Cl)cc3CCc3cccnc32)CC1 |
| > 50 | O=C(c1ccccc1)N1CCC(=C2c3ccc(Cl)cc3CCc3cccnc32)CC1 |
| 1.4 | CC(=O)N1CCC(=C2c3ccccc3CCc3cccnc32)CC1 |
| 28 | CC(=O)N1CCC(=C(c2ccc(Cl)cc2)c2ccccn2)CC1 |
| 1 | CC(=O)N1CCC(=C2c3ccc(C)cc3CCc3cccnc32)CC1 |
| > 50 | CC(=O)C1CCC(=C2c3ccc(Cl)cc3CCc3cccnc32)CC1 (centres undefined) |
| 0.61 | CC(=O)N1CCC(=C2c3ccc(Cl)cc3CCc3cccnc32)CC1 |
| > 50 | CC(=O)N(C)CC/C=C1/c2ccc(Cl)cc2CCc2cccnc21 |
| 8.7 | CC(=O)N1CCC(=C2c3ccc(O)cc3CCc3cccnc32)CC1 |
| 41 | CC(=O)N1CCC(=C2c3ccccc3CCc3ccccc32)CC1 |
| > 50 | CN(C)CCC(c1ccc(Cl)cc1)c1ccccn1 (centres undefined) [clorfeniramina] |
